For the data set, the system named is CCRIS mutagenicity, Ames/micronucleus/aberration tests. In words: CCRIS mutagenicity studies.
[1] abbreviates: Test System: AMES SALMONELLA TYPHIMURIUM, Strain/Indicator: TA98, Metabolic Activation: NONE, Method: PREINCUBATION
Where [2] appears, read: Test System: AMES SALMONELLA TYPHIMURIUM, Strain/Indicator: TA100, Metabolic Activation: NONE, Method: PREINCUBATION
The mark [3] stands for this setting: Test System: AMES SALMONELLA TYPHIMURIUM, Strain/Indicator: TA98, Metabolic Activation: NONE, Method: STANDARD PLATE.
The mark [4] stands for this setting: Test System: AMES SALMONELLA TYPHIMURIUM, Strain/Indicator: TA100, Metabolic Activation: NONE, Method: STANDARD PLATE.

Mutagenic call data for seven compounds are collected here from PubChem BioAssay AID1259407 (Chemical Carcinogenesis Research Information System (CCRIS), 2018).

Structures are written as SMILES. Activity calls are given as the source filed them. The rule behind the calls is not given here.

On to `CCSCCC(N)C(=O)O` (configuration not stated), for which the mutagenic call by setting is: (Test System: AMES SALMONELLA TYPHIMURIUM, Strain/Indicator: TA97, Metabolic Activation: HAMSTER, LIVER, S-9, AROCLOR 1254 (10%), Method: PREINCUBATION) “inactive; negative”; (Test System: AMES SALMONELLA TYPHIMURIUM, Strain/Indicator: TA97, Metabolic Activation: HAMSTER, LIVER, S-9, AROCLOR 1254 (30%), Method: PREINCUBATION) “inactive; negative”; (Test System: AMES SALMONELLA TYPHIMURIUM, Strain/Indicator: TA97, Metabolic Activation: NONE, Method: PREINCUBATION) “inactive; negative”; (Test System: AMES SALMONELLA TYPHIMURIUM, Strain/Indicator: TA97, Metabolic Activation: RAT, LIVER, S-9, AROCLOR 1254 (10%), Method: PREINCUBATION) “inactive; negative”; (Test System: AMES SALMONELLA TYPHIMURIUM, Strain/Indicator: TA97, Metabolic Activation: RAT, LIVER, S-9, AROCLOR 1254 (30%), Method: PREINCUBATION) “inactive; negative”; (Test System: AMES SALMONELLA TYPHIMURIUM, Strain/Indicator: TA98, Metabolic Activation: HAMSTER, LIVER, S-9, AROCLOR 1254 (10%), Method: PREINCUBATION) “inactive; negative”. In addition, the mutagenic call runs as follows: (Test System: AMES SALMONELLA TYPHIMURIUM, Strain/Indicator: TA98, Metabolic Activation: HAMSTER, LIVER, S-9, AROCLOR 1254 (30%), Method: PREINCUBATION) “inactive; negative”; under setting [1], “inactive; negative”; (Test System: AMES SALMONELLA TYPHIMURIUM, Strain/Indicator: TA98, Metabolic Activation: RAT, LIVER, S-9, AROCLOR 1254 (10%), Method: PREINCUBATION) “inactive; negative”; (Test System: AMES SALMONELLA TYPHIMURIUM, Strain/Indicator: TA98, Metabolic Activation: RAT, LIVER, S-9, AROCLOR 1254 (30%), Method: PREINCUBATION) “inactive; negative”; (Test System: AMES SALMONELLA TYPHIMURIUM, Strain/Indicator: TA100, Metabolic Activation: HAMSTER, LIVER, S-9, AROCLOR 1254 (10%), Method: PREINCUBATION) “inactive; negative”; (Test System: AMES SALMONELLA TYPHIMURIUM, Strain/Indicator: TA100, Metabolic Activation: HAMSTER, LIVER, S-9, AROCLOR 1254 (30%), Method: PREINCUBATION) “inactive; negative”. The mutagenic call under setting [2] was “inactive; negative”; the mutagenic call (Test System: AMES SALMONELLA TYPHIMURIUM, Strain/Indicator: TA100, Metabolic Activation: RAT, LIVER, S-9, AROCLOR 1254 (10%), Method: PREINCUBATION) was “inactive; negative”; the mutagenic call (Test System: AMES SALMONELLA TYPHIMURIUM, Strain/Indicator: TA100, Metabolic Activation: RAT, LIVER, S-9, AROCLOR 1254 (30%), Method: PREINCUBATION) was “inactive; negative”; the mutagenic call (Test System: AMES SALMONELLA TYPHIMURIUM, Strain/Indicator: TA104, Metabolic Activation: HAMSTER, LIVER, S-9, AROCLOR 1254 (10%), Method: PREINCUBATION) is “inactive; negative”; the mutagenic call (Test System: AMES SALMONELLA TYPHIMURIUM, Strain/Indicator: TA104, Metabolic Activation: HAMSTER, LIVER, S-9, AROCLOR 1254 (30%), Method: PREINCUBATION) is “inactive; negative”; the mutagenic call (Test System: AMES SALMONELLA TYPHIMURIUM, Strain/Indicator: TA104, Metabolic Activation: NONE, Method: PREINCUBATION) is “inactive; negative”. Moreover, the mutagenic call is “inactive; negative” (Test System: AMES SALMONELLA TYPHIMURIUM, Strain/Indicator: TA104, Metabolic Activation: RAT, LIVER, S-9, AROCLOR 1254 (10%), Method: PREINCUBATION); “inactive; negative” (Test System: AMES SALMONELLA TYPHIMURIUM, Strain/Indicator: TA104, Metabolic Activation: RAT, LIVER, S-9, AROCLOR 1254 (30%), Method: PREINCUBATION); “inactive; negative” (Test System: AMES SALMONELLA TYPHIMURIUM, Strain/Indicator: TA1535, Metabolic Activation: HAMSTER, LIVER, S-9, AROCLOR 1254 (10%), Method: PREINCUBATION); “inactive; negative” (Test System: AMES SALMONELLA TYPHIMURIUM, Strain/Indicator: TA1535, Metabolic Activation: HAMSTER, LIVER, S-9, AROCLOR 1254 (30%), Method: PREINCUBATION); “inactive; negative” (Test System: AMES SALMONELLA TYPHIMURIUM, Strain/Indicator: TA1535, Metabolic Activation: NONE, Method: PREINCUBATION); “inactive; negative” (Test System: AMES SALMONELLA TYPHIMURIUM, Strain/Indicator: TA1535, Metabolic Activation: RAT, LIVER, S-9, AROCLOR 1254 (10%), Method: PREINCUBATION). Also, the mutagenic call (Test System: AMES SALMONELLA TYPHIMURIUM, Strain/Indicator: TA1535, Metabolic Activation: RAT, LIVER, S-9, AROCLOR 1254 (30%), Method: PREINCUBATION) is “inactive; negative”.
As to `Cc1ccc(N=Nc2c(O)c(C(=O)O)cc3ccccc23)cc1S(=O)(=O)O`, the mutagenic call is, setting by setting: under setting [3], “inactive; negative”; (Test System: AMES SALMONELLA TYPHIMURIUM, Strain/Indicator: TA98, Metabolic Activation: RAT, LIVER, S-9, Method: STANDARD PLATE) “inactive; negative”; under setting [4], “inactive; negative”; (Test System: AMES SALMONELLA TYPHIMURIUM, Strain/Indicator: TA100, Metabolic Activation: RAT, LIVER, S-9, Method: STANDARD PLATE) “inactive; negative”.
As for `O[C@@H]1[C@H]2O[C@H]2c2c(ccc3cc4c(ccc5ccccc54)nc23)[C@H]1O`, the mutagenic call is, setting by setting: under setting [1], “active; positive”; under setting [2], “active; positive”; (Test System: CHINESE HAMSTER V-79, Strain/Indicator: V-79/8-AZAGUANINE, Metabolic Activation: NONE) “active; positive”.
As for `[Cr]`, the mutagenic call reads like this: under setting [3], “active; positive”; (Test System: AMES SALMONELLA TYPHIMURIUM, Strain/Indicator: TA98, Metabolic Activation: RAT, LIVER, S-9, PHENOBARBITAL, Method: STANDARD PLATE) “inactive; negative”; (Test System: AMES SALMONELLA TYPHIMURIUM, Strain/Indicator: TA102, Metabolic Activation: NONE, Method: STANDARD PLATE) “inactive; negative”; (Test System: AMES SALMONELLA TYPHIMURIUM, Strain/Indicator: TA102, Metabolic Activation: RAT, LIVER, S-9, PHENOBARBITAL, Method: STANDARD PLATE) “inactive; negative”; (Test System: AMES SALMONELLA TYPHIMURIUM, Strain/Indicator: TA1535, Metabolic Activation: NONE, Method: STANDARD PLATE) “active; positive”; (Test System: AMES SALMONELLA TYPHIMURIUM, Strain/Indicator: TA1535, Metabolic Activation: RAT, LIVER, S-9, PHENOBARBITAL, Method: STANDARD PLATE) “inactive; negative”. Besides, the mutagenic call (Test System: AMES SALMONELLA TYPHIMURIUM, Strain/Indicator: TA1537, Metabolic Activation: NONE, Method: STANDARD PLATE) was “inactive; negative” and the mutagenic call (Test System: AMES SALMONELLA TYPHIMURIUM, Strain/Indicator: TA1537, Metabolic Activation: RAT, LIVER, S-9, PHENOBARBITAL, Method: STANDARD PLATE) was “inactive; negative”.
For `CCCCCC=O`, the mutagenic call reads like this: (Test System: CHINESE HAMSTER V-79, Strain/Indicator: V-79/6-THIOGUANINE (HGPRT), Metabolic Activation: NONE, Method: REPLATING) “active; positive”; (Test System: CHINESE HAMSTER V-79, Strain/Indicator: V-79/OUABAIN (NA/K), Metabolic Activation: NONE, Method: REPLATING) “active; positive”; (Test System: UDS HUMAN HEPATOCYTES, Strain/Indicator: THY INCORP, Metabolic Activation: NONE, Method: AUTORADIOGRAPHY) “inactive; negative”; (Test System: UDS RAT HEPATOCYTES, Strain/Indicator: THY INCORP, Metabolic Activation: NONE, Method: AUTORADIOGRAPHY) “active; positive”.
`Cc1ccc(-c2nc(-c3ccc(C)cc3C)[nH]c2-c2ccc(C)cc2)cc1`: the mutagenic call is, setting by setting: under setting [3], “active; positive”; (Test System: AMES SALMONELLA TYPHIMURIUM, Strain/Indicator: TA98, Metabolic Activation: RAT LIVER S-9, 3-METHYLCHOLANTHRENE, SODIUM PHENOBARBITAL, Method: STANDARD PLATE) “active; positive”; under setting [4], “active; positive”; (Test System: AMES SALMONELLA TYPHIMURIUM, Strain/Indicator: TA100, Metabolic Activation: RAT LIVER S-9, 3-METHYLCHOLANTHRENE, SODIUM PHENOBARBITAL, Method: STANDARD PLATE) “active; positive”.
Take `O=C(/C=C/c1ccccc1)c1ccc(-c2ccccc2)cc1`: the mutagenic call by setting is: under setting [3], “inactive; negative”; (Test System: AMES SALMONELLA TYPHIMURIUM, Strain/Indicator: TA98, Metabolic Activation: RAT, LIVER, S-9, AROCLOR 1254, Method: STANDARD PLATE) “inactive; negative”; under setting [4], “inactive; negative”; (Test System: AMES SALMONELLA TYPHIMURIUM, Strain/Indicator: TA100, Metabolic Activation: RAT, LIVER, S-9, AROCLOR 1254, Method: STANDARD PLATE) “inactive; negative”.
